Source: the supplement of paper PMC10307832

Key:
Assay in all cases: relative viability (nuclei count vs DMSO), 5 days (fraction); higher = more cells survive
Omipalisib = compound: COc1ncc(-c2ccc3nccc(-c4ccnnc4)c3c2)cc1NS(=O)(=O)c1ccc(F)cc1F [Omipalisib]
How it was run: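 Vehicle-anchored 1536-well plates of lung cancer cell lines, held overnight at 37 °C, were pinned with five library-drug doses (not always all listed) spaced by √10. No medium change followed over the next 5 days, after which the cells were fixed, permeabilised and Hoechst-stained together and imaged at 4×. Nuclei were counted with MetaXpress, and viability is treated-well nuclei over vehicle-well nuclei, taken as a median across plates. Plates passed with control CV below 25% and at least one doubling.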

Omipalisib + Navitoclax = compound: COc1ncc(-c2ccc3nccc(-c4ccnnc4)c3c2)cc1NS(=O)(=O)c1ccc(F)cc1F [Omipalisib] + CC1(C)CCC(c2ccc(Cl)cc2)=C(CN2CCN(c3ccc(C(=O)NS(=O)(=O)c4ccc(N[C@H](CCN5CCOCC5)CSc5ccccc5)c(S(=O)(=O)C(F)(F)F)c4)cc3)CC2)C1 [Navitoclax] (partner 0.5 µM)
How it was run: (§1)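 Each reported value is a median over duplicate plates. It expresses relative viability: treated-well nuclei count divided by vehicle-well nuclei count. Lung cancer cell lines in 1536-well plates were dosed by pin tool a day after seeding, alone with one drug or with a fixed anchor-drug dose plus five library-drug doses (not always all listed) in √10 steps, and nuclei were counted after 5 days.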

Omipalisib + Foretinib = compound: COc1ncc(-c2ccc3nccc(-c4ccnnc4)c3c2)cc1NS(=O)(=O)c1ccc(F)cc1F [Omipalisib] + COc1cc2c(Oc3ccc(NC(=O)C4(C(=O)Nc5ccc(F)cc5)CC4)cc3F)ccnc2cc1OCCCN1CCOCC1 [Foretinib] (partner 0.25 µM)
How it was run: as §1

Omipalisib + Lapatinib = compound: COc1ncc(-c2ccc3nccc(-c4ccnnc4)c3c2)cc1NS(=O)(=O)c1ccc(F)cc1F [Omipalisib] + CS(=O)(=O)CCNCc1ccc(-c2ccc3ncnc(Nc4ccc(OCc5cccc(F)c5)c(Cl)c4)c3c2)o1 [Lapatinib] (partner 2 µM)
How it was run: as §1

Omipalisib + Pictilisib = compound: COc1ncc(-c2ccc3nccc(-c4ccnnc4)c3c2)cc1NS(=O)(=O)c1ccc(F)cc1F [Omipalisib] + CS(=O)(=O)N1CCN(Cc2cc3nc(-c4cccc5[nH]ncc45)nc(N4CCOCC4)c3s2)CC1 [Pictilisib] (partner 1 µM)
How it was run: as §1

Omipalisib + Crizotinib = compound: COc1ncc(-c2ccc3nccc(-c4ccnnc4)c3c2)cc1NS(=O)(=O)c1ccc(F)cc1F [Omipalisib] + C[C@@H](Oc1cc(-c2cnn(C3CCNCC3)c2)cnc1N)c1c(Cl)ccc(F)c1Cl [Crizotinib] (partner 1 µM)
How it was run: as §1

Omipalisib + Linsitinib = compound: COc1ncc(-c2ccc3nccc(-c4ccnnc4)c3c2)cc1NS(=O)(=O)c1ccc(F)cc1F [Omipalisib] + C[C@]1(O)C[C@@H](c2nc(-c3ccc4ccc(-c5ccccc5)nc4c3)c3c(N)nccn32)C1 [Linsitinib] (partner 1 µM)
How it was run: as §1

Omipalisib + Alpelisib = compound: COc1ncc(-c2ccc3nccc(-c4ccnnc4)c3c2)cc1NS(=O)(=O)c1ccc(F)cc1F [Omipalisib] + Cc1nc(NC(=O)N2CCC[C@H]2C(N)=O)sc1-c1ccnc(C(C)(C)C(F)(F)F)c1 [Alpelisib] (partner 2 µM)
How it was run: as §1

Omipalisib + Phenformin = compound: COc1ncc(-c2ccc3nccc(-c4ccnnc4)c3c2)cc1NS(=O)(=O)c1ccc(F)cc1F [Omipalisib] + N=C(N)NC(=N)NCCc1ccccc1 [Phenformin] (partner 250 µM)
How it was run: as §1

Omipalisib + Decitabine = compound: COc1ncc(-c2ccc3nccc(-c4ccnnc4)c3c2)cc1NS(=O)(=O)c1ccc(F)cc1F [Omipalisib] + Nc1ncn([C@H]2C[C@H](O)[C@@H](CO)O2)c(=O)n1 [Decitabine] (partner 2 µM)
How it was run: as §1

Omipalisib + Olaparib = compound: COc1ncc(-c2ccc3nccc(-c4ccnnc4)c3c2)cc1NS(=O)(=O)c1ccc(F)cc1F [Omipalisib] + O=C(c1cc(Cc2n[nH]c(=O)c3ccccc23)ccc1F)N1CCN(C(=O)C2CC2)CC1 [Olaparib] (partner 8 µM)
How it was run: as §1

Omipalisib + Bortezomib = compound: COc1ncc(-c2ccc3nccc(-c4ccnnc4)c3c2)cc1NS(=O)(=O)c1ccc(F)cc1F [Omipalisib] + CC(C)C[C@H](NC(=O)[C@H](Cc1ccccc1)NC(=O)c1cnccn1)B(O)O [Bortezomib] (partner 0.002 µM)
How it was run: as §1

Omipalisib + Vorinostat = compound: COc1ncc(-c2ccc3nccc(-c4ccnnc4)c3c2)cc1NS(=O)(=O)c1ccc(F)cc1F [Omipalisib] + O=C(CCCCCCC(=O)Nc1ccccc1)NO [Vorinostat] (partner 1 µM)
How it was run: as §1

Omipalisib + Luminespib = compound: COc1ncc(-c2ccc3nccc(-c4ccnnc4)c3c2)cc1NS(=O)(=O)c1ccc(F)cc1F [Omipalisib] + CCNC(=O)c1noc(-c2cc(C(C)C)c(O)cc2O)c1-c1ccc(CN2CCOCC2)cc1 [Luminespib] (partner 0.01 µM)
How it was run: as §1

Omipalisib + OSI-027 = compound: COc1ncc(-c2ccc3nccc(-c4ccnnc4)c3c2)cc1NS(=O)(=O)c1ccc(F)cc1F [Omipalisib] + COc1cccc2cc(-c3nc([C@H]4CC[C@H](C(=O)O)CC4)n4ncnc(N)c34)[nH]c12 [OSI-027] (partner 0.5 µM)
How it was run: as §1

Omipalisib + Tozasertib = compound: COc1ncc(-c2ccc3nccc(-c4ccnnc4)c3c2)cc1NS(=O)(=O)c1ccc(F)cc1F [Omipalisib] + Cc1cc(Nc2cc(N3CCN(C)CC3)nc(Sc3ccc(NC(=O)C4CC4)cc3)n2)n[nH]1 [Tozasertib] (partner 0.1 µM)
How it was run: as §1

Omipalisib + Dasatinib = compound: COc1ncc(-c2ccc3nccc(-c4ccnnc4)c3c2)cc1NS(=O)(=O)c1ccc(F)cc1F [Omipalisib] + Cc1nc(Nc2ncc(C(=O)Nc3c(C)cccc3Cl)s2)cc(N2CCN(CCO)CC2)n1 [Dasatinib] (partner 0.075 µM)
How it was run: as §1

Omipalisib + Pemetrexed = compound: COc1ncc(-c2ccc3nccc(-c4ccnnc4)c3c2)cc1NS(=O)(=O)c1ccc(F)cc1F [Omipalisib] + Nc1nc2[nH]cc(CCc3ccc(C(=O)N[C@@H](CCC(=O)O)C(=O)O)cc3)c2c(=O)[nH]1 [Pemetrexed] (partner 0.2 µM)
How it was run: as §1

Omipalisib + AZD7762 = compound: COc1ncc(-c2ccc3nccc(-c4ccnnc4)c3c2)cc1NS(=O)(=O)c1ccc(F)cc1F [Omipalisib] + NC(=O)Nc1cc(-c2cccc(F)c2)sc1C(=O)N[C@H]1CCCNC1 [AZD7762] (partner 0.2 µM)
How it was run: as §1

Cell Line	relative viability (Omipalisib; 0.0003 µM)	relative viability (Omipalisib; 0.003 µM)	relative viability (Omipalisib; 0.03 µM)	relative viability (Omipalisib + Foretinib; first compound 0.0003 µM)	relative viability (Omipalisib + Foretinib; first compound 0.003 µM)	relative viability (Omipalisib + Foretinib; first compound 0.03 µM)	relative viability (Omipalisib + Lapatinib; first compound 0.0003 µM)	relative viability (Omipalisib + Lapatinib; first compound 0.003 µM)	relative viability (Omipalisib + Lapatinib; first compound 0.03 µM)	relative viability (Omipalisib + Pictilisib; first compound 0.0003 µM)	relative viability (Omipalisib + Pictilisib; first compound 0.003 µM)	relative viability (Omipalisib + Pictilisib; first compound 0.03 µM)	relative viability (Omipalisib + Crizotinib; first compound 0.0003 µM)	relative viability (Omipalisib + Crizotinib; first compound 0.003 µM)	relative viability (Omipalisib + Crizotinib; first compound 0.03 µM)	relative viability (Omipalisib + Linsitinib; first compound 0.0003 µM)	relative viability (Omipalisib + Linsitinib; first compound 0.003 µM)	relative viability (Omipalisib + Linsitinib; first compound 0.03 µM)	relative viability (Omipalisib + Alpelisib; first compound 0.0003 µM)	relative viability (Omipalisib + Alpelisib; first compound 0.003 µM)	further results
A549	0.923	0.625	0.323	0.892	0.838	0.319	0.912	0.715	0.227	0.457	0.454	0.254	0.64	0.531	0.139	0.438	0.421	0.218	0.665	0.55	relative viability (Omipalisib + Navitoclax; first compound 0.0003 µM): 1.07; relative viability (Omipalisib + Navitoclax; first compound 0.003 µM): 0.91; relative viability (Omipalisib + Navitoclax; first compound 0.03 µM): 0.437; relative viability (Omipalisib + Alpelisib; first compound 0.03 µM): 0.179; relative viability (Omipalisib + Phenformin; first compound 0.0003 µM): 0.157; relative viability (Omipalisib + Phenformin; first compound 0.003 µM): 0.113; relative viability (Omipalisib + Phenformin; first compound 0.03 µM): 0.0802; relative viability (Omipalisib + Decitabine; first compound 0.0003 µM): 0.304; relative viability (Omipalisib + Decitabine; first compound 0.003 µM): 0.224; relative viability (Omipalisib + Decitabine; first compound 0.03 µM): 0.176; relative viability (Omipalisib + Olaparib; first compound 0.0003 µM): 0.206; relative viability (Omipalisib + Olaparib; first compound 0.003 µM): 0.174; relative viability (Omipalisib + Olaparib; first compound 0.03 µM): 0.0441
IA-LM	0.888	0.764	0.355	1.27	0.997	0.683	0.95	0.703	0.251	0.45	0.317	0.197	0.906	0.682	0.288	0.636	0.571	0.243	0.785	0.793	relative viability (Omipalisib + Bortezomib; first compound 0.0003 µM): 1.01; relative viability (Omipalisib + Bortezomib; first compound 0.003 µM): 0.818; relative viability (Omipalisib + Bortezomib; first compound 0.03 µM): 0.258; relative viability (Omipalisib + Navitoclax; first compound 0.0003 µM): 0.92; relative viability (Omipalisib + Navitoclax; first compound 0.003 µM): 0.847; relative viability (Omipalisib + Navitoclax; first compound 0.03 µM): 0.251; relative viability (Omipalisib + Alpelisib; first compound 0.03 µM): 0.373; relative viability (Omipalisib + Vorinostat; first compound 0.0003 µM): 0.873; relative viability (Omipalisib + Vorinostat; first compound 0.003 µM): 0.916; relative viability (Omipalisib + Vorinostat; first compound 0.03 µM): 0.25; relative viability (Omipalisib + Olaparib; first compound 0.0003 µM): 0.903; relative viability (Omipalisib + Olaparib; first compound 0.003 µM): 0.85; relative viability (Omipalisib + Olaparib; first compound 0.03 µM): 0.602
NCI-H1623	0.855	0.553	0.359	0.76	0.727	0.316	–	–	–	–	–	–	–	–	–	–	–	–	–	–	relative viability (Omipalisib + Luminespib; first compound 0.0003 µM): 0.399; relative viability (Omipalisib + Luminespib; first compound 0.003 µM): 0.287; relative viability (Omipalisib + Luminespib; first compound 0.03 µM): 0.292; relative viability (Omipalisib + OSI-027; first compound 0.0003 µM): 0.398; relative viability (Omipalisib + OSI-027; first compound 0.003 µM): 0.338; relative viability (Omipalisib + OSI-027; first compound 0.03 µM): 0.294; relative viability (Omipalisib + Tozasertib; first compound 0.0003 µM): 0.409; relative viability (Omipalisib + Tozasertib; first compound 0.003 µM): 0.354; relative viability (Omipalisib + Tozasertib; first compound 0.03 µM): 0.273; relative viability (Omipalisib + Dasatinib; first compound 0.0003 µM): 0.488; relative viability (Omipalisib + Dasatinib; first compound 0.003 µM): 0.466; relative viability (Omipalisib + Dasatinib; first compound 0.03 µM): 0.266; relative viability (Omipalisib + Phenformin; first compound 0.0003 µM): 0.479; relative viability (Omipalisib + Phenformin; first compound 0.003 µM): 0.607; relative viability (Omipalisib + Phenformin; first compound 0.03 µM): 0.247
NCI-H1563	0.87	0.801	0.577	0.841	0.806	0.585	0.747	0.848	0.747	0.575	0.67	0.694	0.698	0.796	0.609	0.844	0.992	0.77	0.756	0.841	relative viability (Omipalisib + Bortezomib; first compound 0.0003 µM): 0.756; relative viability (Omipalisib + Bortezomib; first compound 0.003 µM): 0.667; relative viability (Omipalisib + Bortezomib; first compound 0.03 µM): 0.7; relative viability (Omipalisib + Luminespib; first compound 0.0003 µM): 0.557; relative viability (Omipalisib + Luminespib; first compound 0.003 µM): 0.515; relative viability (Omipalisib + Luminespib; first compound 0.03 µM): 0.445; relative viability (Omipalisib + OSI-027; first compound 0.0003 µM): 0.759; relative viability (Omipalisib + OSI-027; first compound 0.003 µM): 0.583; relative viability (Omipalisib + OSI-027; first compound 0.03 µM): 0.602; relative viability (Omipalisib + Alpelisib; first compound 0.03 µM): 0.587; relative viability (Omipalisib + Dasatinib; first compound 0.0003 µM): 0.484; relative viability (Omipalisib + Dasatinib; first compound 0.003 µM): 0.442; relative viability (Omipalisib + Dasatinib; first compound 0.03 µM): 0.354; relative viability (Omipalisib + Phenformin; first compound 0.0003 µM): 0.639; relative viability (Omipalisib + Phenformin; first compound 0.003 µM): 0.579; relative viability (Omipalisib + Phenformin; first compound 0.03 µM): 0.535; relative viability (Omipalisib + Pemetrexed; first compound 0.0003 µM): 0.714; relative viability (Omipalisib + Pemetrexed; first compound 0.003 µM): 0.616; relative viability (Omipalisib + Pemetrexed; first compound 0.03 µM): 0.462
NCI-H1703	0.777	0.572	0.234	0.314	0.37	0.301	0.879	0.715	0.293	0.218	0.238	0.202	0.707	0.418	0.128	0.596	0.298	0.171	0.428	0.273	relative viability (Omipalisib + Bortezomib; first compound 0.0003 µM): 0.323; relative viability (Omipalisib + Bortezomib; first compound 0.003 µM): 0.268; relative viability (Omipalisib + Bortezomib; first compound 0.03 µM): 0.153; relative viability (Omipalisib + Navitoclax; first compound 0.0003 µM): 0.713; relative viability (Omipalisib + Navitoclax; first compound 0.003 µM): 0.651; relative viability (Omipalisib + Navitoclax; first compound 0.03 µM): 0.24; relative viability (Omipalisib + Alpelisib; first compound 0.03 µM): 0.179; relative viability (Omipalisib + AZD7762; first compound 0.0003 µM): 0.152; relative viability (Omipalisib + AZD7762; first compound 0.003 µM): 0.115; relative viability (Omipalisib + AZD7762; first compound 0.03 µM): 0.111; relative viability (Omipalisib + Olaparib; first compound 0.0003 µM): 0.28; relative viability (Omipalisib + Olaparib; first compound 0.003 µM): 0.279; relative viability (Omipalisib + Olaparib; first compound 0.03 µM): 0.214
